Consider eleven compounds from ChEMBL document CHEMBL5335816, “3-Amino-5,6,7,8-tetrahydrothieno[2,3-b]quinoline-2-carbonitrile: A fluorescent molecule that induces differentiation in PC12 cells” (Bioorg Med Chem, 2024).

Calls of active or inactive are those of the source. No cut-off for these calls is given here.

In data set [1] the test system is PC-12. Briefly: Neuritogenic activity in rat PC12 cells assessed as induction of neural differentiation at 5 to 10 uM incubated for 96 hrs by microscopic analysis. It counts as functional, cell-based. The settings on record: dose 5-10 µM.
Data set [2] is described as follows: Drug uptake in rat PC12 cells by HPLC analysis. Type of data set: ADME, cell-based. The settings on record: pc-12.
Data set [3] relates to PC-12. In words: Neuritogenic activity in rat PC12 cells assessed as induction of neural differentiation incubated for 96 hrs by microscopic analysis. It counts as functional, cell-based. The settings on record: dose > 5.0 µM.
Data set [4] is described as follows: Drug metabolism in rat PC12 cells assessed as formation of 3-amino-5,6,7,8-tetrahydrothieno[2,3-b]quinoline-2-carbonitrile metabolite by HPLC analysis. Type of data set: ADME, cell-based. The settings on record: pc-12.
The nature of data set [5]: Drug metabolism in rat PC12 cells assessed as formation of 3-amino-5,6,7,8-tetrahydrothieno[2,3-b]quinoline-2-carbonitrile metabolite by fluorescence based assay. Type of data set: ADME, cell-based. The settings on record: pc-12.
Data set [6] can be described thus: Drug uptake in rat PC12 cells by fluorescence based assay. Type of data set: ADME, cell-based. The settings on record: pc-12.
For data set [7], the system named is PC-12. In words: Induction of neural differentiation in rat PC12 cells assessed as increase in Tuj-1 expression at 10 uM incubated for 96 hrs by immunofluorescence staining based assay. Type of data set: functional, cell-based.
A short description of data set [8]: Fluorescent property of compound in acetonitrile assessed as wavelength of emission. Type of data set: physicochemical.
A short description of data set [9]: Fluorescent property of compound in toluene assessed as wavelength of emission. It counts as physicochemical.
Data set [10] in a line: Fluorescent property of compound in DMSO assessed as wavelength of emission. Type of data set: physicochemical.
The nature of data set [11]: Fluorescent property of compound in acetonitrile assessed as wavelength of excitation. Type of data set: physicochemical.
Data set [12] is described as follows: Fluorescent property of compound in DMSO assessed as wavelength of excitation. It counts as physicochemical.
The nature of data set [13]: Fluorescent property of compound in chloroform assessed as wavelength of emission. It counts as physicochemical.
A short description of data set [14]: Fluorescent property of compound in methanol assessed as wavelength of excitation. It counts as physicochemical.
The nature of data set [15]: Drug uptake in rat PC12 cells at 20 uM incubated upto 2 hrs by HPLC analysis. Type of data set: ADME, cell-based. The settings on record: pc-12, 2 h.
Data set [16] is described as follows: Drug uptake in cytoplasm of rat PC12 cells incubated for 24 hrs by fluorescence staining based microscopy. Type of data set: ADME, subcellular. The settings on record: pc12, 24 h.
In data set [17] the test system is PC-12. Briefly: Neuritogenic activity in NGF-insensitive rat PC12 cells assessed as fold increase in induction of neural differentiation at 20 uM incubated for 96 hrs by microscopic analysis relative to control. It counts as functional.
The nature of data set [18]: Fluorescent property of compound in methanol assessed as wavelength of emission. It counts as physicochemical.
A short description of data set [19]: Fluorescent property of compound in chloroform as wavelength of excitation. It counts as physicochemical.
Data set [20] is described as follows: Fluorescent property of compound in toluene assessed as wavelength of excitation. Type of data set: physicochemical.

As for `N#Cc1sc2nc(N3CCOCC3)c3c(c2c1N)CCCC3`, the outcome with PC-12 [1] was inactive.

Take `N#Cc1sc2nc3c(cc2c1N)CCC3`: the outcome in the data set on PC-12 [1] was Active.

`N#Cc1sc2nc(N3CCCCC3)c3c(c2c1N)CCCC3`: in the data set with PC-12 [1], the outcome was inactive.

Regarding `CCOC(=O)c1sc2nc3c(cc2c1N)CCCC3`, the result in the data set on PC-12 [1] was inactive.

Regarding `CC(=O)c1sc2nc3c(cc2c1N)CCCC3`, the result in the data set on PC-12 [1] was inactive.

In the case of `N#Cc1sc2nc3c(cc2c1NC=O)CCCC3`, the Drug uptake entry in data set [2] and in data set [6] was “Active” in each case. In the data set with PC-12 [3], the Activity result is “Dose-Dependent Effect”. The Drug metabolism entry in data set [4] and in data set [5] was “Metabolite_Detected” each time. The outcome with PC-12 [1] and in the data set on PC-12 [7] was Active.

On to `N#Cc1sc2ncc3c(c2c1N)CCCC3`, for which the result in the data set on PC-12 [1] was Active.

Turning to `CC(=O)Nc1c(C#N)sc2nc3c(cc12)CCCC3`, in the data set on PC-12 [1], the result was inactive.

As for `N#Cc1sc2ncccc2c1N`, the result with PC-12 [1] was inactive.

With `N#Cc1sc2nc3c(cc2c1N)CCCC3`, the Activity entry with PC-12 [3] was “Dose-Dependent Effect”; in [8], 460 nm; in [9], 434 nm; in data set [10] it was 478 nm; in [11] it was 345 nm; in data set [12], 359 nm. The Activity is listed as 453 nm in [13]; 356 nm in data set [14]; 485 nm in [18]; 343 nm in data set [19]; 343 nm in data set [20]. Besides, the outcome in the data set on PC-12 [1] and in the data set on PC-12 [7] was Active. Also, the Drug uptake result in [15] and in [16] was “Active” in each case. Further, the “fold change (FC)” value in the data set on PC-12 [17] is 20.

Regarding `NC(=O)c1sc2nc3c(cc2c1N)CCCC3`, in the data set on PC-12 [1], the result was inactive.
